Experimental data published in patent US20230113802A1, “COMPOSITION AND METHOD TO PREPARE LONG-ACTING INJECTABLE SUSPENSION CONTAINING MULTIPLE CANCER DRUGS” (University of Washington, priority 2020, published 2023).

Test: Pharmacokinetic study of GT in DcNPs compared to CrEL (Example 2), plasma G, T and dFdU
Assay type: in vivo, BALB/c mice
Text: Drugs extracted from biological matrices such as plasma or tissue homogenates were quantified by a Shimadzu HPLC system coupled to a 3200 QTRAP mass spectrometer (Applied Biosystems, Grand Island, N.Y.). The HPLC system consisted of two Shimadzu LC-20A pumps, a DGU-20A5 degasser, and a Shimadzu SIL-20AC HT autosampler. The mass spectrometer was equipped with an electrospray ionization (ESI) TurbolonSpray source. The system was operated with Analyst software, version 1.5.2 (ABSciex, Framingham, Mass.). Chromatographic separation of G and T was achieved using a Synergi column (100×2.0 mm; 4-μm particle size) (Phenomenex, Torrance, Calif.) with an inline C8 guard column (4.0×2.0 mm) also from Phenomenex. The flow rate was set to 0.5 mL/min with a 5 μl sample injection volume. The mobile phase for separation consisted of pump A (20 mM Ammonium Acetate in water) and B (Reagent Alcohol). […] The needle was washed with isopropanol after each injection. Analytes were monitored using multiple-reaction monitoring (MRM) for positive ions.
Statistical comparisons were performed using 2-sided t-tests with Welch's correction for unequal variances. Significance probability α was set at 0.05. Pharmacokinetic parameters from non-compartmental analysis were calculated using the trapezoidal rule and relevant pharmacokinetic equations shown in Table 3.

plasma dFdU times higher than G at 3 hours (CrEL control dosage form): 50 times
plasma dFdU times lower than G at 3 hours (GT DcNP dosage form): 3.4 times
plasma concentration within 15 minutes (after GT in CrEL control dosage form IV, mice): 11836.7 ng/mL
concentration at 3 h (female, BALB/c, mouse, plasma, intravenous, after control CrEL dosing, 50/5 mg/kg G/T IV, mice): 4340 ng/mL
Structure (SMILES): O=c1ccn([C@@H]2O[C@H](CO)[C@@H](O)C2(F)F)c(=O)[nH]1 [dFdU, 2′,2′-difluoro-deoxyuridine]
